The target in assay [1] is T1, L-lactate dehydrogenase (Bc-LDH) (Bacillus cereus, UniProt Q81EP4).
T1 construct: gene ldh1; full-length, 314 amino acids (GenBank BDI00612.1), recombinant from pET28-Bc-LDH in E. coli BL21 (DE3)
Description: LDH activity assay (NADH absorbance at […] nm) of purified enzyme; Lineweaver-Burk and Dixon plots. The format is biochemical.

Assay [2] addresses Bacillus cereus NRC1 L-lactate dehydrogenase (Bacillus cereus NRC1) (UniProt P0A392). As to the kind of experiment: SEC; gel filtration on a calibrated Sephacryl S-300 column (142 cm × 1.75 cm i.d.), eluted with 0.02 M phosphate buffer pH 7.5; native mass compared with the subunit mass by SDS-PAGE (35 kDa). On the technique in general: Size exclusion chromatography separates by hydrodynamic size, large species first.

The term Ki denotes the dissociation constant of the complex between target and ligand, obtained from inhibition or displacement. In general, stoichiometry N refers to a count of units in the complex or per binding partner.

T1 sequence (Q81EP4 whole entry): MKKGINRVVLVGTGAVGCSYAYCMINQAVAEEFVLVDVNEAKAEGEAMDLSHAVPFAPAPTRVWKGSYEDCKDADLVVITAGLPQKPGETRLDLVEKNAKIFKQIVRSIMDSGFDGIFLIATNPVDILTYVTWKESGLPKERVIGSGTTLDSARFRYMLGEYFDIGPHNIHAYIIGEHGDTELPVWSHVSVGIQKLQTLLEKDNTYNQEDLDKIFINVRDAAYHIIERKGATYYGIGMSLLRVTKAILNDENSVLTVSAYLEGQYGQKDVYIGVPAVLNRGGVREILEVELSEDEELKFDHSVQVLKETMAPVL

In assay [1], `O=c1c2cc(O)c(O)cc2oc2cc(O)c([C@@H]3O[C@H](CO)[C@@H](O)[C@H](O)[C@H]3O)c(O)c12` [mangiferin, 2-β-D-glucopyranosyl-1,3,6,7-tetrahydroxy-9H-xanthen-9-one] registered a Ki of 75 µM. That is a double-digit micromolar value.

In assay [2], “Bacillus cereus NRC1 L-lactate dehydrogenase (from UniProt P0A392 1-366) (enzyme)” yielded a stoichiometry N of 4.

(Values after paper PMC10117910, “Recombinant production, purification, and biochemical characterization of a novel L-lactate dehydrogenase from Bacillus cereus NRC1 and inhibition study of mangiferin” (Frontiers in Bioengineering and Biotechnology, 2023).)
